According to patent publication US20160355782A1, “METHOD FOR ENHANCING DIFFERENTIATION OF DOPAMINERGIC NEURONS” (Buddhist Tzu Chi Medical Foundation, priority 2015, published 2016):

Columns and labels:
VM precursor cultures = assay: Real-time RT-PCR analysis of VM precursor cultures; format: cell-based, rat
Method: Briefly, ventral mesencephalic tissues were dissected from E14.5 Sprague-Dawley (SD) rats, and then dissociated enzymatically (0.1% trypsin) and mechanically. Cells were seeded into 24-well (1×10^5/cm^2) culture plates pre-coated with 20 μg/mL poly-D-lysine (Sigma-Aldrich), and were maintained in 0.5 mL/well of minimum essential medium (MEM) supplemented with 10% fetal bovine serum (FBS), 10% horse serum (HS), 1 g/L glucose, 2 mM L-glutamine, 1 mM sodium pyruvate, 100 μM nonessential amino acids, 100 U/mL penicillin, and 100 μg/mL streptomycin (all purchased from Invitrogen). Cultures were maintained at 37° C. in a humidified atmosphere of 5% CO2 and 95% air. For DA neuron differentiation, VM precursor cultures, four hours after seeding, were switched to Dulbecco's Modified Eagle's Medium (DMEM)/Ham's F12 (1:1) containing N2 supplement (Invitrogen, Carlsbad, Calif.), penicillin and streptomycin. Immediately following the switch to DMEM/F12 medium, VM precursor cells were treated with various concentration of rat UCN (from Sigma-Aldrich, St. Louis, Mo.) for the indicated periods. For neutralization of endogenous UCN bioactivity, anti-UCN antibody (15 μg/mL) (Santa Cruz Biotechnology, Santa Cruz, Calif.) was added to the VM precursor cultures.
Total RNA was extracted from VM tissues or cultured VM precursors with TRIzol® reagent (Invitrogen). One-step real-time RT-PCR analysis was performed to determine the expression of genes (Power SYBR® Green RNA-to-CT™ 1-step kit, Applied Biosystems, Foster City, Calif.). Threshold cycle (CO value for each test gene was normalized to the Ct value for the β-actin control from the same RNA preparations. The ratio of transcription of each gene was calculated as 2^−(ΔCt), where ΔCt is the difference Cr (test gene)−Ct (β-actin). The primers used herein are listed in Table 1.

midbrain explants = assay: Midbrain explant cultures, TH+ cell numbers; format: cell-based, rat; conditions: UCN, 3 days
Method: Midbrain explants were dissected from E13.5 embryos by the method known by a person skilled in the art, for example as the protocol described by Baizabal and Covarrubias (2009) and performed with some modifications.
The dorsal midline of the explants was cut and the tissue was placed on porous (0.4 μm) transparent membrane inserts (25-mm in diameter, Nunc, Roskilde, Denmark) with the ventricular surface facing up. Inserts were then placed into six-well culture plates. Each well contained 1.5 mL of MEM medium supplemented with 10% FBS, 100 U/mL penicillin, and 100 μg/mL streptomycin. Explants were incubated at 37° C. with 5% CO2 for 4 hours, after which the explants were incubated in a serum-free DMEM/F12/N2 medium with or without UCN for 3 days. Midbrain explants were then fixed with 4% paraformaldehyde and immuno-histochemical analysis was performed.

[1] = tested on: acetylated histone H3 (Ac-H3); assay: Histone H3 acetylation (Western blot, immuno-staining) in VM precursor cultures; format: cell-based, rat
Method: For immuno-cytochemistry, cells were fixed with 4% paraformaldehyde followed by blocking with PBS containing 0.4% Triton X-100, 3% normal goat serum and 2% bovine serum albumin (BSA) for 1 h at room temperature. After blocking, cells were incubated overnight at room temperature with primary antibodies. Primary antibodies were rabbit anti-UCN (1:200), mouse anti-TH (1:2000) (both from Sigma-Aldrich), goat anti-CRHR1 (1:100), rabbit anti-CRHR2 (1:250), rat anti-dopamine transporter (DAT, 1:200), chicken anti-MAP2 (1:5000) (all from Abcam, Cambridge, Mass.), rabbit anti-Nurr1 (1:100, Santa Cruz Biotechnology), mouse anti-Nurr1 (1:100, R&D Systems, Minneapolis, Minn.), rabbit anti-TH (1:1000), mouse anti-NeuN (1:200) (both from Chemicon, Temecula, Calif.), rabbit anti-acetyl-histone H3 (1:1000, Upstate Biotechnology, Lake Placid, N.Y.), rabbit anti-Foxa2 (1:500, Cell Signaling Technology), and rabbit anti-Pitx3 (1:100, Invitrogen).
(§1) For Western blot analysis, VM precursor cells were lysed in M-PER® Mammalian Protein Extraction Reagent (Pierce). Protein concentration was determined by Bradford assay (Bio-Rad, Hercules, Calif.). 30˜50 μg of protein sample was separated on 10˜12% sodium dodecyl sulphate-polyacrylamide gel (SDS-PAGE) and transferred to immobilon polyvinylidene difluoride (PVDF) membranes (Merck Millipore). The membranes were incubated in Tris-buffered saline (TBST, 0.1 M Tris/HCl, pH 7.4, 0.9% NaCl, 0.1% Tween 20) supplemented with 5% non-fat dry milk for 1 h to block nonspecific binding. […] The antigen-antibody complex was detected by using an ECL chemi-luminescence detection system (PerkinElmer, Boston, Mass.). The intensity of the bands was quantified with a GS-800 calibrated densitometer (Bio-Rad), and calculated as the optical density X area of bands.

[2] = tested on: human DA neuroblastoma SH-SY5Y cells; assay: Western blot of TH protein in SH-SY5Y cells; format: cell-based; conditions: UCN vs control medium
Method: Human DA neuroblastoma SH-SY5Y cells were grown in Minimal Essential Medium (MEM)/F12 medium containing 10% FBS, 2 mM L-glutamine, 100 μM nonessential amino acids, 100 U/mL penicillin, and 100 μg/mL streptomycin. Cells were incubated at 37° C. under saturating humidity in 5% CO2/95% air.
as §1

Substance: Urocortin [UCN]
- L-aromatic amino acid decarboxylase (AADC) mRNA (VM precursor cultures; 1 μM UCN, 4 days): trends were found for increased
- dopamine transporter (DAT) mRNA (VM precursor cultures; 1 μM UCN, 4 days): trends were found for increased
- Foxa2 mRNA expression (VM precursor cultures; UCN): upregulated
- Nurr1 mRNA expression (VM precursor cultures; UCN): upregulated
- Pitx3 mRNA expression (VM precursor cultures; UCN): upregulated
- TH mRNA expression (VM precursor cultures; UCN vs control medium): significantly elevated
- mRNA expression specific for GABAergic neurons (GAD67) (VM precursor cultures; UCN vs control medium): no effect
- mRNA expression specific for glutamatergic neurons (VGULT1) (VM precursor cultures; UCN vs control medium): no effect
- mRNA expression specific for serotonergic neurons (SERT) (VM precursor cultures; UCN vs control medium): no effect
- number of TH+ cells in midbrain explants (midbrain explants): increases
- Ac-H3-immuno-reactivity in non- or Nurr1-expressing cells ([1]; 1 μM UCN, 1 hour): increased
- levels of Ac-H3 (Western blot) ([1]; 1 μM UCN, within minutes): significantly increases
- duration of histone H3 acetylation ([1]; single application of UCN): at least 48 hours
- TH protein levels [2]: induced the increases
